Literature values in patent publication US20210361582A1, “COLCHICINE SALICYLATE DERIVATIVES AND METHODS OF TREATMENT” (Murray and Poole Enterprises, LTD., priority 2015, published 2021).

Columns and labels:
[1] = at 18 months; 84 patients; aspirin alone vs plus colchicine 1.0-2.0 mg first day then 0.5-1.0 mg/d for 6 months
[2] = at 18 months; 120 patients; conventional treatment with aspirin vs plus colchicine 1.0 to 2.0 mg first day then 0.5 to 1.0 mg/day for 3 months; p=0.004
[3] = colchicine 0.5 mg/day in addition to statins and other standard secondary prevention therapies; 532 patients; median 3 years
[4] = in vivo

Compound	recurrence rate (actuarial rates) [1]	recurrence rate (primary end point) [2]	prevention of cardiovascular events [3]	bioavailability, inter patient variations ([4]; human)	bioavailability [4]	second peak (resorption from colon), share of totally absorbed colchicine [4]
CC(=O)Oc1ccccc1C(=O)O [aspirin]	50.6%	32.3%				
COc1cc2c(c(OC)c1OC)-c1ccc(OC)c(=O)cc1[C@@H](NC(C)=O)CC2 [colchicine, N[5,6,7,9-tetrahydro-1,2,3,10-tetratmethoxy 9-oxobenzo[a]heptalen-7-yl],(S)-acetamide]	24.0%	10.7%	appeared effective	20-80%	ca. 45%	about 50%
